Measurements as given in US7265152B2 (ViroPharma Incorporated, priority 2002, dated 2007).
Where two headings read alike, the source gives them in different places.

Legend:
[1] = system: HCV replicon (BB7 sequence) in Huh-7-Clone A cells; experiment: HCV replicon assay: ELISA of NS5A protein in replicon-containing cells (Inhibition of Viral RNA Replication); type: cell-based; conditions: read-out: Replicon
Outline: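 Huh-7-Clone A cells carrying subgenomic BB7 HCV replicon (G418-selectable) incubated 72 h with compound. NS5A protein quantified by cell ELISA: glutaraldehyde fixation, anti-NS5A monoclonal plus HRP secondary, TMB read at OD 650 nm. EC50 derived from 8-point serial dilution dose curve.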

HCV NS5B = target: T1, HCV NS5B (Hepatitis C virus genotype 1b, UniProt Q9WMX2); experiment: Inhibition of viral RNA-dependent RNA polymerase (RdRp), in vitro biochemical assay; parameters: species or system HCV genotype 1b virus (BB7); conditions: read-out: HCV pol-BB7 IC50
T1 construct: fusion protein, of which the carboxyl terminal 21 amino acids were removed to enhance its solubility; His tag (GSHHHHHH); made in house; host or cells: E. coli
Outline: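 Purified recombinant NS5B from a genotype 1b consensus (BB7), His-tagged, E. coli-expressed, with the C-terminal 21 residues deleted. Inhibition of RdRp activity in vitro was measured, and IC50 is the concentration giving 50% inhibition.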

[2] = Hepatitis C virus, HCV replicon, range of EC50
[3] = HCV NS5B RdRp, BB7, reported as range class
[4] = Hepatitis C virus, Huh-7-Clone A, NS5A ELISA, 72-hour incubation, ranges of EC50
[5] = purified His-tagged NS5B (BB7), carboxyl terminal 21 amino acids removed
[6] = Hepatitis C virus, ranges of EC50 in HCV replicon assay
[7] = Hepatitis C virus, HCV replicon assay, ranges of EC50
[8] = HCV NS5B RdRp, BB7, activity class
[9] = HCV NS5B RdRp, BB7, class symbols A-D
[10] = Hepatitis C virus, HCV replicon assay, ranges of 50% effective concentration (EC50)
[11] = HCV NS5B polymerase, BB7 (genotype 1b), values given as range classes A-D
[12] = ranges of EC50 in HCV replicon assay

## CNC(=O)c1c(-c2ccc(F)cc2)oc2cc(N3CCOCC3)c(OCc3nsc(Cl)n3)cc12 [Example 206, 5-(5-Chloro-[1,2,4]thiadiazol-3-ylmethoxy)-2-(4-fluoro-phenyl)-6-morpholin-4-yl-benzofuran-3-carboxylic acid methylamide]
[1]; [2]
  EC50: < 1 µM
HCV NS5B; [3]
  IC50: 0.5 to 5 µM

## CNC(=O)c1c(-c2ccc(F)cc2)oc2cc(C3CNC(=O)O3)c(OC)cc12 (centres unmarked) [Example 48, 2-(4-Fluoro-phenyl)-5-methoxy-6-(2-oxo-oxazolidin-5-yl)-benzofuran-3-carboxylic acid methylamide]
[1]; [4]
  EC50: < 10 µM
HCV NS5B; [5]
  IC50: ≤ 0.5 µM

## CNC(=O)c1c(-c2ccc(F)cc2)oc2cc(-c3cccnc3)c(OC(C)C)cc12 [Example 153, 2-(4-Fluoro-phenyl)-5-isopropoxy-6-pyridin-3-yl-benzofuran-3-carboxylic acid methylamide]
[1]; [6]
  EC50: < 10 µM
HCV NS5B; HCV NS5B RdRp, BB7 genotype 1b
  IC50: ≤ 0.5 µM

## CNC(=O)c1c(-c2ccc(F)cc2)oc2ccc(Cl)cc12 [Example 73, 5-Chloro-2-(4-fluoro-phenyl)-benzofuran-3-carboxylic acid methylamide]
[1]; [4]
  EC50: < 10 µM
HCV NS5B; [5]
  IC50: 0.5 to 5 µM

## CNC(=O)c1c(-c2ccc(Cl)c(F)c2)oc2ccc(OC)cc12 [Example 77, 2-(4-Chloro-3-fluoro-phenyl)-5-methoxy-benzofuran-3-carboxylic acid methylamide]
[1]; [4]
  EC50: < 10 µM
HCV NS5B; [5]
  IC50: ≤ 0.5 µM

## CCc1cc2c(C(=O)NC)c(-c3ccc(F)cc3)oc2cc1N(CCOC)S(C)(=O)=O [Example 335, 5-Ethyl-2-(4-fluoro-phenyl)-6-[methanesulfonyl-(2-methoxy-ethyl)-amino]-benzofuran-3-carboxylic acid methylamide]
[1]; [7]
  EC50: < 1 µM
HCV NS5B; [8]
  IC50: ≤ 0.5 µM

## CNC(=O)c1c(-c2ccc(F)cc2)oc2cc(-c3cnco3)c(OC(C)C)cc12 [Example 168, 2-(4-Fluoro-phenyl)-5-isopropoxy-6-oxazol-5-yl-benzofuran-3-carboxylic acid methylamide]
[1]; [6]
  EC50: < 10 µM
HCV NS5B; HCV NS5B RdRp, BB7 genotype 1b
  IC50: ≤ 0.5 µM

## CNC(=O)c1c(-c2ccc(F)cc2)oc2cc(C3CCCN3S(C)(=O)=O)c(OC(C)C)cc12 (centres unmarked) [Example 275, 2-(4-Fluoro-phenyl)-5-isopropoxy-6-(1-methanesulfonyl-pyrrolidin-2-yl)-benzofuran-3-carboxylic acid methylamide]
[1]; [7]
  EC50: < 1 µM
HCV NS5B; [9]
  IC50: ≤ 0.5 µM

## CNC(=O)c1c(-c2ccc(F)cc2)oc2cc(C3CCCN3S(C)(=O)=O)c(OC)cc12 (centres unmarked) [Example 309, 2-(4-Fluoro-phenyl)-6-(1-methanesulfonyl-pyrrolidin-2-yl)-5-methoxy-benzofuran-3-carboxylic acid methylamide]
[1]; [7]
  EC50: < 1 µM
HCV NS5B; [9]
  IC50: ≤ 0.5 µM

## CNC(=O)c1c(-c2ccc(F)cc2)oc2cc(-c3nc(C)nn3C)c(OC)cc12 [Example 387, 6-(2,5-Dimethyl-2H-[1,2,4]triazol-3-yl)-2-(4-fluoro-phenyl)-5-methoxy-benzofuran-3-carboxylic acid methylamide]
[1]; [10]
  EC50: < 10 µM
HCV NS5B; [11]
  IC50: 0.5 to 5 µM

## CNC(=O)c1c(-c2ccc(F)c(Cl)c2)oc2ccc(OC)cc12 [Example 76, 2-(3-Chloro-4-fluoro-phenyl)-5-methoxy-benzofuran-3-carboxylic acid methylamide]
[1]; [4]
  EC50: < 10 µM
HCV NS5B; [5]
  IC50: 0.5 to 5 µM

## 2-(4-Fluoro-phenyl)-5-methoxy-6-(5-methyl-[1,3,4]oxadiazol-2-yl)-benzofuran-3-carboxylic acid methylamide [Example 430]
[1]; HCV replicon assay, ranges of 50% effective concentration (EC50)
  EC50: < 10 µM
HCV NS5B; [11]
  IC50: ≤ 0.5 µM

## CNC(=O)c1c(-c2ccc(F)cc2)oc2cc(C(C)(O)CN)c(OC(C)C)cc12 (centres unmarked) [Example 375, 6-(2-Amino-1-hydroxy-1-methyl-ethyl)-2-(4-fluoro-phenyl)-5-isopropoxy-benzofuran-3-carboxylic acid methylamide]
[1]; [7]
  EC50: < 30 µM
HCV NS5B; [8]
  IC50: 0.5 to 5 µM

## CNC(=O)c1c(-c2ccc(F)cc2)oc2cc(NS(C)(=O)=O)c(C3CCCO3)cc12 (centres unmarked) [Example 441, 2-(4-Fluoro-phenyl)-6-methanesulfonylamino-5-(tetrahydro-furan-2-yl)-benzofuran-3-carboxylic acid methylamide]
[1]; [7]
  EC50: < 1 µM
HCV NS5B; HCV NS5B RdRp, BB7 (genotype 1b), reported as class symbols
  IC50: ≤ 0.5 µM

## CNC(=O)c1c(-c2ccc(F)cc2)oc2cc(-c3ccc[nH]3)c(OC(C)C)cc12 [Example 220, 2-(4-Fluoro-phenyl)-5-isopropoxy-6-(1H-pyrrol-2-yl)-benzofuran-3-carboxylic acid methylamide]
[1]; [2]
  EC50: < 10 µM
HCV NS5B; [3]
  IC50: ≤ 0.5 µM

## CNC(=O)c1c(-c2ccc(F)cc2)oc2cc(C(N)=O)c(OC(C)C)cc12 [Example 146, 2-(4-Fluoro-phenyl)-5-isopropoxy-benzofuran-3,6-dicarboxylic acid 6-amide 3-methylamide]
[1]; [12]
  EC50: > 30 µM
HCV NS5B; HCV NS5B RdRp, BB7 genotype 1b
  IC50: 0.5 to 5 µM

## CNC(=O)c1c(-c2ccc(F)cc2)oc2cc(-c3cc(C)no3)c(OC(C)C)cc12 [Example 233, 2-(4-Fluoro-phenyl)-5-isopropoxy-6-(3-methyl-isoxazol-5-yl)-benzofuran-3-carboxylic acid methylamide]
[1]; [2]
  EC50: < 30 µM
HCV NS5B; [3]
  IC50: ≤ 0.5 µM

## CNC(=O)c1c(-c2ccc(F)cc2)oc2cc(N(CCF)S(C)(=O)=O)c(OC)cc12 [Example 307, 6-[(2-Fluoro-ethyl)-methanesulfonyl-amino]-2-(4-fluoro-phenyl)-5-methoxy-benzofuran-3-carboxylic acid methylamide]
[1]; [7]
  EC50: < 1 µM
HCV NS5B; [9]
  IC50: ≤ 0.5 µM

## CNC(=O)c1c(-c2ccc(F)cc2)oc2ccc(C)cc12 [Example 10, 5-Methyl-2-(4-fluoro-phenyl)benzofuran-3-carboxylic acid methylamide]
[1]; [4]
  EC50: < 10 µM
HCV NS5B; [5]
  IC50: 0.5 to 5 µM

## 2-(4-Fluoro-phenyl)-5-hydroxy-6-morpholin-4-yl-benzofuran-3-carboxylic acid methylamide [Example 124]
[1]; [12]
  EC50: < 10 µM
HCV NS5B; HCV NS5B RdRp, BB7 genotype 1b
  IC50: 0.5 to 5 µM

## CNC(=O)c1c(-c2ccc(F)cc2)oc2cc(C(C)(C)NC(C)=O)c(OC)cc12 [Example 385, 6-(1-Acetylamino-1-methyl-ethyl)-2-(4-fluoro-phenyl)-5-methoxy-benzofuran-3-carboxylic acid methylamide]
[1]; [10]
  EC50: < 1 µM
HCV NS5B; [11]
  IC50: ≤ 0.5 µM

## CNC(=O)c1c(-c2ccc(F)cc2)oc2cc(-c3c(C)n[nH]c3C)c(OC)cc12 [Example 256, 6-(3,5-Diinethyl-1H-pyrazol-4-yl)-2-(4-fluoro-phenyl)-5-methoxy-benzofuran-3-carboxylic acid methylamide]
[1]; [7]
  EC50: < 1 µM
HCV NS5B; [9]
  IC50: ≤ 0.5 µM

## CNC(=O)c1c(-c2ccc(F)cc2)oc2cc(N3CCOCC3)c(OCc3noc(-c4c(C)noc4C)n3)cc12 [Example 203, 5-[5-(3,5-Dimethyl-isoxazol-4-yl)-[1,2,4]oxadiazol-3-ylmethoxy]-2-(4-fluoro-phenyl)-6-morpholin-4-yl-benzofuran-3-carboxylic acid methylamide]
[1]; [2]
  EC50: < 10 µM
HCV NS5B; [3]
  IC50: 0.5 to 5 µM

## CC(C)NC(=O)c1c(-c2ccc(F)cc2)oc2cc(NS(C)(=O)=O)c(OC(C)C)cc12 [Example 197, 2-(4-Fluoro-phenyl)-5-isopropoxy-6-methanesulfonylamino-benzofuran-3-carboxylic acid isopropylamide]
[1]; [2]
  EC50: < 10 µM
HCV NS5B; [3]
  IC50: 5 to 30 µM

## CCOc1cc2c(C(=O)NC)c(-c3ccc(F)cc3)oc2cc1N(CC)S(C)(=O)=O [Example 32, 5-Ethoxy-6-(ethyl-methanesulfonyl-amino)-2-(4-fluoro-phenyl)-benzofuran-3-carboxylic acid methylamide]
[1]; [4]
  EC50: < 1 µM
HCV NS5B; [5]
  IC50: ≤ 0.5 µM
